Source: PMC10004634 (PLOS ONE, 2023)
Like-named read-outs stand apart in the source and are kept apart here.

Key:
Test in all cases: biochemical
Set-up in all cases: KINOMEscan scanMAX competition binding, DNA-tagged kinases, qPCR read-out, percent control at 300 nM
[1] = molecular target: T1, OSR1 (Homo sapiens, UniProt O95747)
T1 construct: gene OXSR1

[2] = molecular target: BMPR2 (Homo sapiens, UniProt Q13873)
[3] = molecular target: EPHB1 (Homo sapiens, UniProt P54762)
[4] = molecular target: STK36 (Homo sapiens, UniProt Q9NRP7)
[5] = molecular target: T2, ERK5 (Homo sapiens, UniProt Q13164)
T2 construct: gene MAPK7

[6] = molecular target: SRPK2 (Homo sapiens, UniProt P78362)
[7] = molecular target: PRKCE (Homo sapiens, UniProt Q02156)
[8] = molecular target: T3, RPS6KA5(Kin.Dom.2-C-terminal) (Homo sapiens, UniProt O75582)
T3 construct: Kin.Dom.2-C-terminal

[9] = molecular target: RET (Homo sapiens, UniProt P07949)
[10] = molecular target: CAMKK2 (Homo sapiens, UniProt Q96RR4)
[11] = molecular target: T4, CDK4-cyclinD3 (Homo sapiens, UniProt P11802)
T4 construct: cyclinD3

[12] = molecular target: EGFR(E746-A750del) (Homo sapiens, UniProt P00533, DEL746-750)
[13] = molecular target: T5, PKAC-alpha (Homo sapiens, UniProt P17612)
T5 construct: gene PRKACA

[14] = molecular target: PIK3CA(M1043I) (Homo sapiens, UniProt P42336, M1043I)
[15] = molecular target: MET (Homo sapiens, UniProt P08581)
[16] = molecular target: TESK1 (Homo sapiens, UniProt Q15569)
[17] = molecular target: T6, ERK2 (Homo sapiens, UniProt P28482)
T6 construct: gene MAPK1

[18] = molecular target: FGFR1 (Homo sapiens, UniProt P11362)
[19] = molecular target: T7, MST2 (Homo sapiens, UniProt Q13188)
T7 construct: gene STK3

[20] = molecular target: T8, AMPK-alpha1 (Homo sapiens, UniProt Q13131)
T8 construct: gene PRKAA1

[21] = molecular target: T9, PKAC-beta (Homo sapiens, UniProt P22694)
T9 construct: gene PRKACB

[22] = molecular target: MERTK (Homo sapiens, UniProt Q12866)
[23] = molecular target: DMPK (Homo sapiens, UniProt Q09013)
[24] = read-out: Percent control / Acalabrutinib
[25] = read-out: Percent control / Ibrutinib
[26] = read-out: Percent control / Tirabrutinib
[27] = read-out: Percent control / Zanubrutinib

T8 sequence (Q13131 whole entry): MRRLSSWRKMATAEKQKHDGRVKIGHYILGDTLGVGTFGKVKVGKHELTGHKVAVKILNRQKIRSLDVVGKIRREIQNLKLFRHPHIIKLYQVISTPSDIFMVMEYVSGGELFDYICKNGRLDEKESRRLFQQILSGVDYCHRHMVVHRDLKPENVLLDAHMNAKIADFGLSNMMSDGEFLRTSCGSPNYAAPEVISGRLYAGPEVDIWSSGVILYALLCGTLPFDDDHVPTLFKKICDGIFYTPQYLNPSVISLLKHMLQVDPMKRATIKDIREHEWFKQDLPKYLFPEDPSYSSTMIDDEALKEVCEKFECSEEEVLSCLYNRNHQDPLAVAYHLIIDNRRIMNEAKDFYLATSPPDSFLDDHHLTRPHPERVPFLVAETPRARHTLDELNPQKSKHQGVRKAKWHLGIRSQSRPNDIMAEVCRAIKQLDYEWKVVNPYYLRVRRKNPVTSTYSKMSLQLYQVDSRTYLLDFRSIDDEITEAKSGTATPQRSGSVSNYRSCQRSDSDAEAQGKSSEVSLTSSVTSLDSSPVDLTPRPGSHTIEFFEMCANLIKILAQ
Chain of CAMKK2 (Q96RR4 whole entry): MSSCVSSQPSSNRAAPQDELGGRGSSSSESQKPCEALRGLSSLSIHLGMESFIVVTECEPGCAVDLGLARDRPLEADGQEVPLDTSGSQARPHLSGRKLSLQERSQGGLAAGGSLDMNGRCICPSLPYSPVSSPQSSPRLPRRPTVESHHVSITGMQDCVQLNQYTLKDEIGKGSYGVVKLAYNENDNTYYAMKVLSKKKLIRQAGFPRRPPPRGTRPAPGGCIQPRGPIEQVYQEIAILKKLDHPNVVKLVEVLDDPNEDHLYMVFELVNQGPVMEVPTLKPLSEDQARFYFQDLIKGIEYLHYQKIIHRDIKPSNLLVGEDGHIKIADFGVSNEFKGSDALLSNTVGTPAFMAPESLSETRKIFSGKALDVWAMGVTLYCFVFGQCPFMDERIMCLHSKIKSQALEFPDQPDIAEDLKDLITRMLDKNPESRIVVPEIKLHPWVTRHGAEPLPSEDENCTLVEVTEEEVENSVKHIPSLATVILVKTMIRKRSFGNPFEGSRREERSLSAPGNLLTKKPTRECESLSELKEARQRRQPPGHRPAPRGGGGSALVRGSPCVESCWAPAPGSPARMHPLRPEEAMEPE
Chain of EPHB1 (P54762 whole entry): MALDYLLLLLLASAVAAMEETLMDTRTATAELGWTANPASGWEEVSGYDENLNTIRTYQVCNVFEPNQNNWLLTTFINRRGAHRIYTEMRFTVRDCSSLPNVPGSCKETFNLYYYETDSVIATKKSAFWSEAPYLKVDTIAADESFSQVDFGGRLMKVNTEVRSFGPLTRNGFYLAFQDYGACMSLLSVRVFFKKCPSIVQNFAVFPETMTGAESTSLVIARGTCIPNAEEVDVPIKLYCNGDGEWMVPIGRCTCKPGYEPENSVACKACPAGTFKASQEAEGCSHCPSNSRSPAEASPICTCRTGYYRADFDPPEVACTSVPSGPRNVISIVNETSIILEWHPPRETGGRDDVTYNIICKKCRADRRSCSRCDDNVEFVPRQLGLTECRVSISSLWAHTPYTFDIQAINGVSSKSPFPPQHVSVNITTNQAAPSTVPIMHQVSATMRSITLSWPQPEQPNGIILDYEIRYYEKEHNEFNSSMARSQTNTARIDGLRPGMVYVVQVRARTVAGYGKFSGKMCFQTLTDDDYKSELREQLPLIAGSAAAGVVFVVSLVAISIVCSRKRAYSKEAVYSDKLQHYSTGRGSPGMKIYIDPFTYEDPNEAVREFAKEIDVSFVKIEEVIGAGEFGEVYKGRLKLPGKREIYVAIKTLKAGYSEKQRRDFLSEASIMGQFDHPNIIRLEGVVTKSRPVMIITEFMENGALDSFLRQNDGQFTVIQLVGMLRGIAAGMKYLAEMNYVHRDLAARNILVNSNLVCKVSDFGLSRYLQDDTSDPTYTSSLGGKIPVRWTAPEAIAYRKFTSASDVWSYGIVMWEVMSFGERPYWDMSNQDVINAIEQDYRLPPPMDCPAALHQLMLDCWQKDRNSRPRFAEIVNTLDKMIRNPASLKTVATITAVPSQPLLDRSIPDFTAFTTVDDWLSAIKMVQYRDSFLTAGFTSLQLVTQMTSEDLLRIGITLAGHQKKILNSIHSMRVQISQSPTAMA
Chain of MERTK (Q12866 whole entry): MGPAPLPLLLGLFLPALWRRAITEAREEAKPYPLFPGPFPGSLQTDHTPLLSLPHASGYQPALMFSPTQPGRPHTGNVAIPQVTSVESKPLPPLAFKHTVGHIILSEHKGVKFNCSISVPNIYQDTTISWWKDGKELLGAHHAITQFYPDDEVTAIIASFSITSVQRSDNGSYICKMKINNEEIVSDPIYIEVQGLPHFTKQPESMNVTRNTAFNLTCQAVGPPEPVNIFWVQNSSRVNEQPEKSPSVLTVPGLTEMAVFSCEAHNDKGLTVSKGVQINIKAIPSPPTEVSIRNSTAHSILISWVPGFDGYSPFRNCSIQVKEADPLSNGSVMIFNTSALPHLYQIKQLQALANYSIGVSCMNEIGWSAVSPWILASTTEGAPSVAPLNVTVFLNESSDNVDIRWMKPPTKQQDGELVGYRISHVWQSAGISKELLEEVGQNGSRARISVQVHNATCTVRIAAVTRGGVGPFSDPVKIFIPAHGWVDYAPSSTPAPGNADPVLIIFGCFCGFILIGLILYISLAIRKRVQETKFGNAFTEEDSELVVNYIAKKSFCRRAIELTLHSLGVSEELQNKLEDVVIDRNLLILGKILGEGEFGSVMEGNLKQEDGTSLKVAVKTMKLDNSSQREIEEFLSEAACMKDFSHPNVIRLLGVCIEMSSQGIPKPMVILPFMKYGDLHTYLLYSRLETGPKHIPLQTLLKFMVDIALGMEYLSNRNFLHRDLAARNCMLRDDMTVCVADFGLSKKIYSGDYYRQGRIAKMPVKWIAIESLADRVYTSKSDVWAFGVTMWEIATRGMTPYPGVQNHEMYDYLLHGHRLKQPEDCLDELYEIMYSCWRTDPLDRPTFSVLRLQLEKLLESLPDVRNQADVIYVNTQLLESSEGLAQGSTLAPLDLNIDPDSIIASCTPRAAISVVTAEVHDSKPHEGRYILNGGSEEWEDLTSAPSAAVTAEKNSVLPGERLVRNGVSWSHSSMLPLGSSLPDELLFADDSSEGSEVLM
Chain of DMPK (Q09013 whole entry): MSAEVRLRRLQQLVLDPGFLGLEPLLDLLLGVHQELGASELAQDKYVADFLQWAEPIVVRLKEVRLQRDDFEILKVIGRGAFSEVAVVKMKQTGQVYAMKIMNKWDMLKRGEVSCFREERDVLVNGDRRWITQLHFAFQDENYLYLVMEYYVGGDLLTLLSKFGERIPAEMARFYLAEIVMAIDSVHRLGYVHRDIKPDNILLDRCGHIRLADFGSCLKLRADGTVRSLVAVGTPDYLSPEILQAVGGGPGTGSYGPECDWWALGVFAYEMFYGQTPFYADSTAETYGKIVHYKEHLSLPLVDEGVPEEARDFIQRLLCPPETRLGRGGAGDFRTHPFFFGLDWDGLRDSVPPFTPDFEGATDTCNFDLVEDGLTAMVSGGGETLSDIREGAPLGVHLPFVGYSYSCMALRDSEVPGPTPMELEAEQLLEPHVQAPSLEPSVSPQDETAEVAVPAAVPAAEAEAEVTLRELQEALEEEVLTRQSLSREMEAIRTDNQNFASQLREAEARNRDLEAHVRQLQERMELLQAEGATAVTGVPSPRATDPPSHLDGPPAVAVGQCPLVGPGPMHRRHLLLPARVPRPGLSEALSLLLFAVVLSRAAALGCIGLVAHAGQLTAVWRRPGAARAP
Chain of SRPK2 (P78362 whole entry): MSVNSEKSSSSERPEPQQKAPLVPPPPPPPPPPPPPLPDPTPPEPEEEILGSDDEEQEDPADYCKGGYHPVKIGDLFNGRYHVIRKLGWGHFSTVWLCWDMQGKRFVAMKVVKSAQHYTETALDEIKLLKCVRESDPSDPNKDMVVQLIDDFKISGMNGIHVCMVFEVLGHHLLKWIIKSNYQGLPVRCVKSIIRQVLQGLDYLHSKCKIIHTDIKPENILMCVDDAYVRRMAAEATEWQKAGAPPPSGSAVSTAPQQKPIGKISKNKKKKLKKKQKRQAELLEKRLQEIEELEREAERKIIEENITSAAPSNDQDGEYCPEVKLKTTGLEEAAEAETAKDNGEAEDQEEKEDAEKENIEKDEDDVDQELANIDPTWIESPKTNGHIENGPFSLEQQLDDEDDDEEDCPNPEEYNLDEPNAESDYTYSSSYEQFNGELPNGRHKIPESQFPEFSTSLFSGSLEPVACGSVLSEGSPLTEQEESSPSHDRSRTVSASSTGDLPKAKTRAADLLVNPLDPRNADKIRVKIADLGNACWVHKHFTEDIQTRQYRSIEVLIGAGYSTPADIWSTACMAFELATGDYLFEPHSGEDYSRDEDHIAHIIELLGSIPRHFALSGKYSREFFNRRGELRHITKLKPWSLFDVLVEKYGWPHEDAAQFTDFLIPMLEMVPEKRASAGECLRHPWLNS
T4 sequence (P11802 whole entry): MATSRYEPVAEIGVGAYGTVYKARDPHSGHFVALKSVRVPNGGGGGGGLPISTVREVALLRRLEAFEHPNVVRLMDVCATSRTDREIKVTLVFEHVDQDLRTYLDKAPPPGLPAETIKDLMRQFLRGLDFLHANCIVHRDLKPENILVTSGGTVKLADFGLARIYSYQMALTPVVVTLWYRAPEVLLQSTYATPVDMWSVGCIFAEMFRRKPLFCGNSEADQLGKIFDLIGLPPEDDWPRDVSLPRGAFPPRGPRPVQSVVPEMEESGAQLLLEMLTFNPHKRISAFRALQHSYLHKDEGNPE
T4 sequence (P30281 whole entry partner): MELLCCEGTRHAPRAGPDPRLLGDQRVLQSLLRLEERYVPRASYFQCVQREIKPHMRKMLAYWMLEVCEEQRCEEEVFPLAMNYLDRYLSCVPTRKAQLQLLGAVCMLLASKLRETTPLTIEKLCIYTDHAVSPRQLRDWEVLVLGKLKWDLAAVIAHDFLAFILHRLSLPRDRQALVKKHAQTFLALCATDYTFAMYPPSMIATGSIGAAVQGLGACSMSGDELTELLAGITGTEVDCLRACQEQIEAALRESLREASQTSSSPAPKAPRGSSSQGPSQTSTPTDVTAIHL

Q: What does the source list for `CC#CC(=O)N1CCC[C@H]1c1nc(-c2ccc(C(=O)Nc3ccccn3)cc2)c2c(N)nccn12` [Acalabrutinib]?
A: remaining binding at 0.3 µM [1, 24]: 92%; remaining binding at 0.3 µM [2, 24]: 99%; remaining binding at 0.3 µM [3, 24]: 93%; remaining binding at 0.3 µM [4, 24]: 90%; remaining binding at 0.3 µM [5, 24]: 97%; remaining binding at 0.3 µM [6, 24]: 90%; remaining binding at 0.3 µM [7, 24]: 96%; remaining binding at 0.3 µM [8, 24]: 92%; remaining binding at 0.3 µM [9, 24]: 87%; remaining binding at 0.3 µM [10, 24]: 97%; remaining binding at 0.3 µM [11, 24]: 97%; remaining binding at 0.3 µM [12, 24]: 96%; remaining binding at 0.3 µM [13, 24]: 99%; remaining binding at 0.3 µM [14, 24]: 90%; remaining binding at 0.3 µM [15, 24]: 90%; remaining binding at 0.3 µM [16, 24]: 79%; remaining binding at 0.3 µM [17, 24]: 96%

Q: With `C=CC(=O)N1CCC[C@@H](n2nc(-c3ccc(Oc4ccccc4)cc3)c3c(N)ncnc32)C1` [Ibrutinib] as the compound, how does the remaining binding at 0.3 µM [4, 25] read?
A: 71%

Q: What about the remaining binding at 0.3 µM [18, 25] of the same compound?
A: 66%

Q: And the remaining binding at 0.3 µM [19, 25]?
A: 85%

Q: What about the remaining binding at 0.3 µM [20, 25] of the same compound?
A: 92%

Q: What about the remaining binding at 0.3 µM [9, 25] of the same compound?
A: 40%

Q: And the remaining binding at 0.3 µM [21, 25]?
A: 85%

Q: And the remaining binding at 0.3 µM [22, 25]?
A: 70%

Q: What does the source list for `CC#CC(=O)N1CC[C@@H](n2c(=O)n(-c3ccc(Oc4ccccc4)cc3)c3c(N)ncnc32)C1` [Tirabrutinib]?
A: remaining binding at 0.3 µM [23, 26]: 93%; remaining binding at 0.3 µM [12, 26]: 100%

Q: What does the source list for `C=CC(=O)N1CCC([C@@H]2CCNc3c(C(N)=O)c(-c4ccc(Oc5ccccc5)cc4)nn32)CC1` [Zanubrutinib]?
A: remaining binding at 0.3 µM [1, 27]: 100%; remaining binding at 0.3 µM [2, 27]: 93%; remaining binding at 0.3 µM [23, 27]: 90%; remaining binding at 0.3 µM [3, 27]: 96%; remaining binding at 0.3 µM [18, 27]: 68%; remaining binding at 0.3 µM [19, 27]: 100%; remaining binding at 0.3 µM [5, 27]: 84%; remaining binding at 0.3 µM [6, 27]: 96%; remaining binding at 0.3 µM [7, 27]: 100%; remaining binding at 0.3 µM [8, 27]: 100%; remaining binding at 0.3 µM [20, 27]: 88%; remaining binding at 0.3 µM [10, 27]: 87%; remaining binding at 0.3 µM [11, 27]: 98%; remaining binding at 0.3 µM [13, 27]: 99%; remaining binding at 0.3 µM [14, 27]: 90%; remaining binding at 0.3 µM [15, 27]: 96%; remaining binding at 0.3 µM [21, 27]: 82%; remaining binding at 0.3 µM [22, 27]: 91%; remaining binding at 0.3 µM [16, 27]: 83%; remaining binding at 0.3 µM [17, 27]: 100%
